No end group written: not given here.
Target: T1, ERCC1-XPF (Homo sapiens, UniProt P07992)
T1 sequence (P07992 1-297): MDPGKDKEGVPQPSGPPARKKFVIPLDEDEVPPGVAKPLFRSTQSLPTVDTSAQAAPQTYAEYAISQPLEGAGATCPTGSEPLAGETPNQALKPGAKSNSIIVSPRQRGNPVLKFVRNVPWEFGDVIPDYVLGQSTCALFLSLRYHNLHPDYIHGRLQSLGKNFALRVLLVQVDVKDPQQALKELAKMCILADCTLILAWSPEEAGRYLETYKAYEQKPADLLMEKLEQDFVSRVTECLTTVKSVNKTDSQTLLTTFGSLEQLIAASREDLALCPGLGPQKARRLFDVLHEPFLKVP
T1 sequence (Q92889 1-916 partner): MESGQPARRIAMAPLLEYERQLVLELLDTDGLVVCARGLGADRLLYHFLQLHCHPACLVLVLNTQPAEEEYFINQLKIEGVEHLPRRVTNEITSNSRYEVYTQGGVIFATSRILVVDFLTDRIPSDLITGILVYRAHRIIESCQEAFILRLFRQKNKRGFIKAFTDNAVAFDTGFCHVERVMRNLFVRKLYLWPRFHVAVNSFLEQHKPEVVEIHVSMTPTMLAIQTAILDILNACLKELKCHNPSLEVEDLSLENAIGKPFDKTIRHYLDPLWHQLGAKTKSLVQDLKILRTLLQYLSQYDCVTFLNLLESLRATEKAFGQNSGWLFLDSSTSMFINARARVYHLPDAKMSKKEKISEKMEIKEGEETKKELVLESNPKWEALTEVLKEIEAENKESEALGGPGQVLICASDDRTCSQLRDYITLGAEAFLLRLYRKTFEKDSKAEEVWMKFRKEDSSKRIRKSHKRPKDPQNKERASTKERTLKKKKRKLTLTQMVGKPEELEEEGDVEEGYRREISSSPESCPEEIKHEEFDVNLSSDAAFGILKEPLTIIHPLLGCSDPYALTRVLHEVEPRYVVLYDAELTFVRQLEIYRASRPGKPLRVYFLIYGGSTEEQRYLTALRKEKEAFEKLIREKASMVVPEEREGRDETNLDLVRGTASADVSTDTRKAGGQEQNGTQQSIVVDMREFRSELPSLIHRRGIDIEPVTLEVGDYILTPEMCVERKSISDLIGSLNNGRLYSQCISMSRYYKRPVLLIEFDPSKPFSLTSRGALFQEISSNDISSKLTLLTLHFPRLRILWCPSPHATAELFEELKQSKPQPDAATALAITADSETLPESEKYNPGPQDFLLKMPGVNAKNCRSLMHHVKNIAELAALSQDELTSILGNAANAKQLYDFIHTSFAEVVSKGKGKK
Test: Nuclease assay: incision of stem-loop DNA substrate by purified ERCC1-XPF
Format: biochemical
Settings: 92 μM peptide
Method: Nuclease assay. A substrate consisting of a 12 base pair stem with a 22 nucleotide loop (5′-[…](T)22[…]; SEQ ID NO:7) was 5′ end labeled using a T4 polynucleotide kinase and [γ-^32P]-ATP. […] The final reaction volume was 15 μl.

For KIIDTGGGFILEEE [XPA67-80], the “effect on intrinsic nuclease activity of ERCC1-XPF” value (0.4 mM MnCl2) was “do not affect” and the “effect on intrinsic nuclease activity of ERCC1-XPF” value (0.4 mM MnCl2, listed as XPA peptide) was “has no effect”.

From patent US20100331233A1, “CRYSTAL OF XPA AND ERCC1 COMPLEX AND USES THEREOF” (priority 2007, published 2010)
